Results: patent US5484940A, “Substituted 3-indolyl-5-pyrazolone compounds” (priority 1994, dated 1996)

Tests used:
[1] = test system: 293 751 SWE cells; test: Cytotoxicity (MTT) in 293 751 SWE cells; assay type: cell-based, human; conditions: concentration not given
Experimental: (§1) This screening assay employed cells (K293=human kidney cell line) which were stably transfected with the gene for amyloid precursor protein 751 (APP751) containing the double mutation Lys651 Met652 to Asn651 Leu652 (APP751 numbering) in the manner described in International Patent Application Publication No. 94/10569^1 and Citron et al.^16. This mutation is commonly called the Swedish mutation and the cells, designated as "293 751 SWE", were plated in Coming 96-well plates at 1.5-2.5×10^4 cells per well in Dulbecco's minimal essential media plus 10% fetal bovine serum. Cell number is important in order to achieve β-amyloid ELISA results within the linear range of the assay (~0.2 to 2.5 ng per mL).
Cytotoxic effects of the compounds were measured by a modification of the method of Hansen, et al.^17. To the cells remaining in the tissue culture plate was added 25 μL of a 3,(4,5-dimethylthiazol-2-yl)2,5-diphenyltetrazolium bromide (MTT) stock solution (5 mg/mL) to a final concentration of 1 mg/mL. Cells were incubated at 37° C. for one hour, and cellular activity was stopped by the addition of an equal volume of MTT lysis buffer (20% w/v sodium dodecylsulfate in 50% dimethylformamide, pH 4.7). Complete extraction was achieved by overnight shaking at room temperature. The difference in the OD562nm and the OD650nm was measured in a Molecular Device's UVmax microplate reader as an indicator of the cellular viability.

[2] = test system: β-amyloid peptide production; test: Cellular screen for inhibitors of β-amyloid production (ELISA, 293 751 SWE cells); assay type: cell-based, human; conditions: 2 h pretreatment + 2 h, normalized for cytotoxicity (MTT), concentration not given
Experimental: as §1
Following overnight incubation at 37° C. in an incubator equilibrated with 10% carbon dioxide, media were removed and replaced with 200 μL of a substituted 3-indolyl-5-pyrazolone (drug) containing media per well for a two hour pretreatment period and cells were incubated as above.
At the end of the pretreatment period, the media were again removed and replaced with fresh drag containing media as above and cells were incubated for an additional two hours. After treatment, plates were centrifuged in a Beckman GPR at 1200 rpm for five minutes at room temperature to pellet cellular debris from the conditioned media. From each well, 100 μL of conditioned media or appropriate dilutions thereof were transferred into an ELISA plate precoated with antibody 266 against amino acids 13-28 of β-amyloid peptide as described in International Patent Application Publication No. 94/10569^1 and stored at 4° C. overnight. An ELISA assay employing labelled antibody 6C6 against amino acids 1-16 of β-amyloid peptide was run the next day to measure the amount of β-amyloid peptide produced.
The results of the β-amyloid peptide ELISA were fit to a standard curve and expressed as ng/mL β-amyloid peptide. […] All results are the mean and standard deviation of at least six replicate assays.

SMILES | cytotoxic effect on the 293 751 SWE cells [1] | reduction of β-amyloid peptide production as compared to control [2]
COc1ccc2c(c1)c(CC1=NN(C3CCCC3)C(=O)C1)c(C)n2C(=O)c1ccc(Cl)cc1 [Example 11, 3-[1-(4-chlorobenzoyl)-5-methoxy-2-methyl-3-indolylmethyl]-1-cyclopentyl-5-pyrazolone] | did not have a significant cytotoxic effect | at least 20%
COc1ccc2c(c1)c(CC1=NN(C3CCCCCC3)C(=O)C1)c(C)n2C(=O)c1ccc(Cl)cc1 [Example 12, 3-[1-(4-chlorobenzoyl)-5-methoxy-2-methyl-3-indolylmethyl]-1-cycloheptyl-5-pyrazolone] | did not have a significant cytotoxic effect | at least 20%
COc1ccc2c(c1)c(CC1=NN(Cc3ccccc3)C(=O)C1)c(C)n2C(=O)c1ccc(Cl)cc1 [Example 13, 3-[1-(4-chlorobenzoyl)-5-methoxy-2-methyl-3-indolylmethyl]-1-benzyl-5-pyrazolone] | did not have a significant cytotoxic effect | at least 20%
CCCC(CCC)N1N=C(Cc2c(C)n(C(=O)c3ccc(Cl)cc3)c3ccc(OC)cc23)CC1=O [Example 16, 3-[1-(4-chlorobenzoyl)-5-methoxy-2-methyl-3-indolylmethyl]-1-(4-heptyl)-5-pyrazolone] | did not have a significant cytotoxic effect | at least 20%
COc1ccc2[nH]c(C)c(CC3=NN(C4CCCCC4)C(=O)C3)c2c1 [Example 17, 3-(5-methoxy-2-methyl-3-indolylmethyl)-1-cyclohexyl-5-pyrazolone] | did not have a significant cytotoxic effect | at least 20%
COc1ccc2c(c1)c(CC1=NN(C3CCCCC3)C(=O)C1)c(C)n2Cc1ccccc1 [Example 20, 3-(1-benzyl-5-methoxy-2-methyl-3-indolylmethyl)-1-cyclohexyl-5-pyrazolone] | did not have a significant cytotoxic effect | at least 20%
COc1ccc2c(c1)c(CCC1=NN(C3CCCCC3)C(=O)C1)c(C)n2C(=O)c1ccc(Cl)cc1 [Example 21, 3-[1-(4-chlorobenzoyl)-5-methoxy-2-methyl-3-indolylethyl]-1-cyclohexyl-5-pyrazolone] | did not have a significant cytotoxic effect | at least 20%
Cc1c(CC2=NN(C3CCCCC3)C(=O)C2)c2ccccc2n1C(=O)c1ccc(Cl)cc1 [Example 22, 3-[1-(4-chlorobenzoyl)-2-methyl-3-indolylmethyl]-1-cyclohexyl-5-pyrazolone] | did not have a significant cytotoxic effect | at least 20%
COc1ccc2c(c1)c(CC1=NN(c3cccc(Br)c3)C(=O)C1)c(C)n2C(=O)c1ccc(Cl)cc1 [Example 28, 3-[1-(4-chlorobenzoyl)-5-methoxy-2-methyl-3-indolylmethyl]-1-(3-bromophenyl)-5-pyrazolone] |  | < 20%
COc1ccc2c(c1)c(CC1=NN(c3cc(C)cc(C)c3)C(=O)C1)c(C)n2C(=O)c1ccc(Cl)cc1 [Example 29, 3-[1-(4-chlorobenzoyl)-5-methoxy-2-methyl-3-indolylmethyl]-1-(3,5-dimethylphenyl)-5-pyrazolone] | did not have a significant cytotoxic effect | at least 20%
COc1ccc2c(c1)c(CC1=NN(c3ccc(C(F)(F)F)cc3)C(=O)C1)c(C)n2C(=O)c1ccc(Cl)cc1 [Example 37, 3-[1-(4-chlorobenzoyl)-5-methoxy-2-methyl-3-indolylmethyl]-1-(4-trifluoromethylphenyl)-5-pyrazolone] | did not have a significant cytotoxic effect | at least 20%
COc1ccc2c(c1)c(CC1=NN(C3CCCCC3)C(=O)C1)c(C)n2C(=O)c1ccc(Cl)c(Cl)c1 [Example 39, 3-[1-(3,4-dichlorobenzoyl)-5-methoxy-2-methyl-3-indolylmethyl]-1-cyclohexyl-5-pyrazolone] | did not have a significant cytotoxic effect | at least 20%
COc1ccc2c(c1)c(CC1=NN(c3cccc(NC(C)=O)c3)C(=O)C1)c(C)n2C(=O)c1ccc(Cl)cc1 [Example 41, 3-[1-(4-chlorobenzoyl)-5-methoxy-2-methyl-3-indolylmethyl]-1-(3-acetamidophenyl)-5-pyrazolone] |  | < 20%
COc1ccc2c(c1)c(CC1=NN(C3CCCCC3)C(=O)C1C)c(C)n2C(=O)c1ccc(Cl)cc1 (centres unmarked) [Example 43, 3-[1-(4-chlorobenzoyl)-5-methoxy-2-methyl-3-indolylmethyl]-1-cyclohexyl-4-methyl-5-pyrazolone] | did not have a significant cytotoxic effect | at least 20%
COc1ccc2c(c1)c(CC1=NN(C3CCCCC3)C(=O)C1(C)C)c(C)n2C(=O)c1ccc(Cl)cc1 [Example 44, 3-[1-(4-chlorobenzoyl)-5-methoxy-2-methyl-3-indolylmethyl]-1-cyclohexyl-4,4-dimethyl-5-pyrazolone] | did not have a significant cytotoxic effect | at least 20%
COc1ccc2c(c1)c(CC1=NN(C)C(=O)C1)c(C)n2C(=O)c1ccc(Cl)cc1 [Example 46, 3-[1-(4-chlorobenzoyl)-5-methoxy-2-methyl-3-indolylmethyl]-1-methyl-5-pyrazolone] | did not have a significant cytotoxic effect | at least 20%
O=C1CC(CCCc2c[nH]c3ccccc23)=NN1C1CCCCC1 [Example 49, 3-[3-indolyl-n-propyl]-1-cyclohexyl-5-pyrazolone] | did not have a significant cytotoxic effect | at least 20%
COc1ccc2c(c1)c(CC1=NN(c3cccc(C(F)(F)F)c3)C(=O)C1)c(C)n2C(=O)c1ccc2ccccc2c1 [Example 51] | did not have a significant cytotoxic effect | at least 20%
COc1ccc2c(c1)c(CC1=NN(c3cccc(C(F)(F)F)c3)C(=O)C1)c(C)n2C(=O)c1ccccc1 [Example 53, 3-[1-benzoyl-5-methoxy-2-methyl-3-indolylmethyl]-1-(3-trifluoromethylphenyl)-5-pyrazolone] | did not have a significant cytotoxic effect | at least 20%
COc1ccc2c(c1)c(CC1=NN(c3ccc(C(F)(F)F)cc3)C(=O)C1)c(C)n2C(=O)c1ccc(C#N)cc1 [Example 55, 3-[1-(4-cyanobenzoyl)-5-methoxy-2-methyl-3-indolylmethyl]-1-(4-trifluoromethylphenyl)-5-pyrazolone] | did not have a significant cytotoxic effect | at least 20%
COc1ccc(C(=O)n2c(C)c(CC3=NN(C4CCCCC4)C(=O)C3)c3cc(OC)ccc32)cc1 [Example 57, 3-[1-(4-methoxybenzoyl)-5-methoxy-2-methyl-3-indolylmethyl]-1-cyclohexyl-5-pyrazolone] | did not have a significant cytotoxic effect | at least 20%
COc1ccc(C(=O)n2c(C)c(CC3=NN(c4cccc(C(F)(F)F)c4)C(=O)C3)c3cc(OC)ccc32)cc1 [Example 58, 3-[1-(4-methoxybenzoyl)-5-methoxy-2-methyl-3-indolylmethyl]-1-(3-trifluoromethylphenyl)-5-pyrazolone] | did not have a significant cytotoxic effect | at least 20%
CCCC(=O)n1c(C)c(CC2=NN(C3CCCCC3)C(=O)C2)c2cc(OC)ccc21 [Example 60, 3-[1-butanoyl-5-methoxy-2-methyl-3-indolylmethyl]-1-cyclohexyl-5-pyrazolon] | did not have a significant cytotoxic effect | at least 20%
